The values that follow come from ChEMBL document CHEMBL1136611, “Design, synthesis, and evaluation of beta-galactosylceramide mimics promoting beta-glucocerebrosidase activity in keratinocytes” (2003).

Assay [1] has as its target T1, Lysosomal acid glucosylceramidase (Homo sapiens) (UniProt P04062).
T1 sequence (whole entry): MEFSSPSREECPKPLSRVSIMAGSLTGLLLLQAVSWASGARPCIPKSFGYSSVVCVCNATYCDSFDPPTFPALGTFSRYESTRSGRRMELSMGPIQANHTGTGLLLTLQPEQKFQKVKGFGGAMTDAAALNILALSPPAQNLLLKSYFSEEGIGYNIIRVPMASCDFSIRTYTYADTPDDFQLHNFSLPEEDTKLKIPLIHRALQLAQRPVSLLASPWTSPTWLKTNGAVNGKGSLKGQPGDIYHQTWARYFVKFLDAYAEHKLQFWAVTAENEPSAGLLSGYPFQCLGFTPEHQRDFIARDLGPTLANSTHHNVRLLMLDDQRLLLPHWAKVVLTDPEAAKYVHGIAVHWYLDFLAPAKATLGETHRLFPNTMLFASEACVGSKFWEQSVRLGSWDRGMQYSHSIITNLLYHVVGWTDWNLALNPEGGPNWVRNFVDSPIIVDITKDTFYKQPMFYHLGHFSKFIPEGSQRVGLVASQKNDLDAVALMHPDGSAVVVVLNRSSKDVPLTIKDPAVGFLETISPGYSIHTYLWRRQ
Briefly: In vitro beta--Glucocerebrosidase (beta-GlcCer'ase) activity in cultured human keratinocytes. Further details: reference not given here. It is filed as cell-based.

Assay [2] is filed under the species Mus musculus. Briefly: […] effect on UVB-induced murine epidermal barrier disruption to control water loss in mice in experiment 2. It counts as functional.
Assay [3] is filed under the species Mus musculus. Briefly: […] effect on UVB-induced murine epidermal barrier disruption to control water loss in mice in experiment 1. It is filed as functional.

The structures appear in SMILES notation.

As for `CCCCCCCCCCCCCCCC(=O)N[C@@H](CO[C@@H]1O[C@@H](CO)C(O)[C@H](O)[C@@H]1O)C(=O)NCCCCCCCCCCCCCC` (single isomer, unassigned), the Activity in assay [1] turned out to be 1.37.

In turn, `CCCCCCCCCCCCCCCCCC(=O)N[C@@H](CO[C@@H]1O[C@@H](CO)C(O)[C@H](O)[C@@H]1O)C(=O)NCCCCCCCCCC` (single isomer, unassigned) returned an Activity in assay [1] of 1.2.

With `CCCCCCCCCCCCCCNC(=O)[C@H](CO[C@@H]1O[C@@H](CO)C(O)[C@H](O)[C@@H]1O)NC(=O)CCCCCCC` (single isomer, unassigned), the Activity in assay [1] was 0.87.

`CCCCCCCCCCCCCCCCCC(=O)N[C@@H](CO[C@@H]1O[C@@H](CO)C(O)[C@H](O)[C@@H]1O)C(=O)NCCCCCC` (single isomer, unassigned): the TEWL in assay [2] is 2.19; in assay [3], 2.01. In assay [1], this molecule displayed an Activity of 1.42.

The molecule `CCCCCCCCCCCCCCCCCC(=O)N[C@@H](CO[C@@H]1O[C@@H](CO)C(O)[C@H](O)[C@@H]1O)C(=O)NCCCCCCCCCCCCCC` (single isomer, unassigned) came in with an Activity in assay [1] of 1.24.
